Results reported in PMC4461796, “Synthesis, anticholinesterase and antioxidant potentials of ketoesters derivatives of succinimides: a possible role in the management of Alzheimer’s” (Chemistry Central Journal, 2015).
In brackets after ≈: the same amount, converted by molar mass. Several values for one entry are separate records, joined by “and”; a condition that tells them apart may be missing. Equal entries are not always repeated. Where two headings read alike, the source gives them in different places.

Legend:
[1] = DPPH free radicals scavenging assay; conditions: for Percent inhibition (mean ± SEM), DPPH free radicals scavenging: n = 3; for IC50 (DPPH free radicals scavenging): from 250-1000 μg/mL tested concentrations
Experimental: The compounds’ free radical scavenging ability was evaluated using 1,1-diphenyl, 2-picrylhydrazyl (DPPH) free radicals. Different dilutions (250, 500 and 1000 μg/mL) of compounds (0.1 mL) were added to 0.004 % methanolic solution of DPPH. After 30 min the absorbance was measured at 517 nm using UV spectrophotometer. Ascorbic acid was used as positive control.
Percent scavenging activity was calculated as; A0−A1/A0×100
Where A0 is absorbance of control and A1 is the absorbance of the compound sample. Each experiment was performed in triplicate and inhibition curves were constructed using the GraphPad prism program (GraphPAD, San Diego, California, USA) and median inhibitory concentrations (IC50) values were determined.
(§1) Radical scavenging ability was calculated by a linear regression analysis among the inhibition percentages against the compounds concentrations via the Excel program.

[2] = ABTS free radicals scavenging assay; conditions: for Percent inhibition (mean ± SEM), ABTS free radicals scavenging: n = 3; for IC50 (ABTS free radicals scavenging): from 250-1000 μg/mL tested concentrations
Experimental: ABTS (2, 2-azinobis [3-ethylbenzthiazoline]-6-sulfonic acid) free radicals were also used to confirm the antioxidant activity of the synthesized compounds. The activity is based on the capacity of antioxidants to scavenge ABTS^+ radical cation causing a reduction in absorbance at 734 nm. ABTS (7 mM) and […] (2.45 mM) solutions were prepared and mixed. The resultant mixture was maintained at room temperature in dark for 12–16 h to get dark color solution containing ABTS^+ radical cations. At the time of activity, ABTS^+ radical cation solution was diluted with Phosphate buffer (0.01 M) pH 7.4 to adjust an absorbance value of 0.70 at 734 nm. Radical scavenging capability of the compounds was analyzed by mixing 300 μl of compound with 3.0 mL of ABTS solution in cuvette. The reduction in absorbance was measured spectrophotometrically after one minute of mixing the solutions and continued for six min. Ascorbic acid was used as a positive control. The assay was repeated three times and percent inhibition was calculated with formula; %scavengingeffect=Controlabsorbance‐Sampleabsorbance/Controlabsorbance×100
as §1

[3] = molecular target: T1, acetylcholinesterase (AChE) from Electric eel (Electrophorus electricus, UniProt O42275); format: biochemical; conditions: n = 3
T1 construct: AChE Electric eel (type-VI-S, CAS 9000-81-1 Sigma-Aldrich GmbH USA); purchased Sigma-Aldrich type-VI-S (CAS 9000-81-1; catalogue number not given)
Experimental: (§2) The assay is based on the acetylcholinesterase promoted hydrolysis of acetylthiocholine iodide and butyrylthiocholine iodide by butyrylcholinesterase. The hydrolysis processes give 5-thio-2-nitrobenzoate anion followed by complexation with DTNB (which give yellow color) and is detected by the spectrophotometer.
(§3) Compounds (each separately) were dissolved in phosphate buffer (0.1 M) in concentrations ranging from 250–1000 μg/mL. […] Finally, potassium hydroxide was used to adjust pH. AChE (518 U/mg solid) and BChE (7–16 U/mg) were diluted in freshly prepared buffer pH 8.0 until final concentrations of 0.03 U/mL and 0.01 U/mL were obtained. Solutions of DTNB (0.0002273 M), ATchI and BTchI (0.0005 M) were prepared in distilled water and were kept in Eppendorf caps in the refrigerator.
(§4) For each assay, an enzyme solution of 5 μl was added to the cuvette followed by addition of compound (205 μl), and finally DTNB reagent (5 μl). The solution mixture was maintained at 30 °C for 15 min using water bath with subsequent addition of substrate solution (5 μl). A double beam spectrophotometer was used to measure the absorbance at 412 nm. […] The absorbances along with the reaction time were taken for four minutes at 30 °C and were repeated in triplicate. Finally, the enzyme activity and enzyme inhibition by control and tested samples were calculated from the rate of absorption with change in time (V = ΔAbs /Δt) as follow;
Where Vmax is enzyme activity in the absence of inhibitor drug. […]

[4] = molecular target: T2, butyrylcholinesterase (BChE) from equine serum (Equus caballus, UniProt P81908); assay: Butyrylcholinesterase inhibition assay (Ellman's spectrophotometric assay); format: biochemical; conditions: for IC50: from 250-1000 μg/mL tested concentrations; for inhibition at 250 µg/mL / inhibition at 500 µg/mL / inhibition at 1000 µg/mL: read-out: Percent AChEI (mean ± SEM) (Table 3, butyrylcholinesterase inhibition)
T2 construct: BChE equine serum Lyophilized (CAS 9001-08-5 Sigma-Aldrich GmbH USA); purchased Sigma-Aldrich CAS 9001-08-5 (catalogue number not given); host or cells: equine serum
Experimental: as §2, §3, §4
Where Vmax is enzyme activity in the absence of inhibitor drug.
as §1

T1 sequence (O42275 24-633): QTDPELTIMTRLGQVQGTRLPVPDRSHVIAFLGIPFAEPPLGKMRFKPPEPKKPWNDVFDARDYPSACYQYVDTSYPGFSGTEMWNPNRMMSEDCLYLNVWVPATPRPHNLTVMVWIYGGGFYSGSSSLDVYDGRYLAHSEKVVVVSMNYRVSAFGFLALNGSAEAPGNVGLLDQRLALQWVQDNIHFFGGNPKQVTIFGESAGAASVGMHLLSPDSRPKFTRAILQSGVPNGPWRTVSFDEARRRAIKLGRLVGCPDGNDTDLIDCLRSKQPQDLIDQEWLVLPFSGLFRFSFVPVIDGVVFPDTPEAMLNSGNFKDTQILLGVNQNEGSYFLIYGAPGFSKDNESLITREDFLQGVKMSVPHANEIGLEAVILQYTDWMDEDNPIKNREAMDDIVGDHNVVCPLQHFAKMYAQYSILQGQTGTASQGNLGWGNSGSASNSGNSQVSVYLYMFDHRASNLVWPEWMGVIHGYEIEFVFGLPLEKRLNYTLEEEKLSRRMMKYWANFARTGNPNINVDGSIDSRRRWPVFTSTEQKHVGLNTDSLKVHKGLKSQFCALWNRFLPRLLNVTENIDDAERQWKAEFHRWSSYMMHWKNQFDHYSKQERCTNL
T2 sequence (P81908 whole entry): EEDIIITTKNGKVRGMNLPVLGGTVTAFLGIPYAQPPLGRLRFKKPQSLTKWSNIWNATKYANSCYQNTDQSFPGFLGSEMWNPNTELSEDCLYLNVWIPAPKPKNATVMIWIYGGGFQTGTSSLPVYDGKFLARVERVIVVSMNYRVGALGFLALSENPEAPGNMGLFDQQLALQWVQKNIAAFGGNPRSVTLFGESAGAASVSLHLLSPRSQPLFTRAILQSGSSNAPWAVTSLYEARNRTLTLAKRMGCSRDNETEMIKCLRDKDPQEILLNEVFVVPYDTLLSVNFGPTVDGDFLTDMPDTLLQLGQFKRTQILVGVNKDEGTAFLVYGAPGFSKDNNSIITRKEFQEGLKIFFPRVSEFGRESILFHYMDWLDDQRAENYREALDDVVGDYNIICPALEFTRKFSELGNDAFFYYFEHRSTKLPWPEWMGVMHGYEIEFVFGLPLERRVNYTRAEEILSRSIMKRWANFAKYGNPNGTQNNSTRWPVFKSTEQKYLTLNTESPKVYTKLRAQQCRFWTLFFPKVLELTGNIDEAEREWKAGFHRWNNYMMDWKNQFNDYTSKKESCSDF

Compound | Percent inhibition (mean ± SEM), DPPH free radicals scavenging ([1]; conc. 250 μg/mL) [%] | Percent inhibition (mean ± SEM), DPPH free radicals scavenging ([1]; conc. 500 μg/mL) [%] | Percent inhibition (mean ± SEM), DPPH free radicals scavenging ([1]; conc. 1000 μg/mL) [%] | IC50 (DPPH free radicals scavenging) [1] [µg/mL] | Percent inhibition (mean ± SEM), ABTS free radicals scavenging ([2]; conc. 250 μg/mL) [%] | Percent inhibition (mean ± SEM), ABTS free radicals scavenging ([2]; conc. 500 μg/mL) [%] | Percent inhibition (mean ± SEM), ABTS free radicals scavenging ([2]; conc. 1000 μg/mL) [%] | IC50 (ABTS free radicals scavenging) [2] [µg/mL] | Percent AChEI (mean ± SEM) ([3]; concentration 250 μg/mL) | Percent AChEI (mean ± SEM) ([3]; concentration 500 μg/mL) | Percent AChEI (mean ± SEM) ([3]; concentration 1000 μg/mL) | IC50 [4] [µM] | inhibition at 250 µg/mL [4] [%] | inhibition at 500 µg/mL [4] [%] | inhibition at 1000 µg/mL [4] [%]
O=C1O[C@H]([C@@H](O)CO)C(O)=C1O [Ascorbic acid, reference compound] | 78.61 ± 0.23 | 81.71 ± 0.54 | 93.56 ± 0.37 | 20 (≈ 114 µM) | 84.66 ± 0.88 | 87.23 ± 0.47 | 91.62 ± 0.62 | <0.1 | – | – | – | – | – | – | –
CCOC(=O)C1(C2CC(=O)N(c3ccccc3)C2=O)CCCC1=O (centres unmarked) [Compound 1, Ethyl 2-oxo-1-(2,5-dioxo-1-phenylpyrrolidin-3-yl)cyclopentanecarboxylate] | 35.60 ± 0.75 | 52.49 ± 0.78 | 72.41 ± 0.45 | 440 (≈ 1340 µM) | 65.00 ± 0.57 | 77.45 ± 0.54 | 88.51 ± 0.62 | 90 (≈ 273 µM) | 93.25 ± 0.25 ^ns % | 94.25 ± 0.05 ^ns % | 98.00 ± 0.70% and 98.00 ± 0.70^ns % | 128 | 72.5 ± 0.02 | 82.5 ± 0.18 | 90.25 ± 0.02
CCOC(=O)C1(C2CC(=O)N(Cc3ccccc3)C2=O)CCCC1=O (centres unmarked) [Compound 2, Ethyl 1-(1-benzyl-2,5-dioxopyrrolidin-3-yl)-2-oxocyclopentanecarboxylate] | 33.61 ± 0.66 | 52.48 ± 0.56 | 70.32 ± 0.61 | 460 (≈ 1340 µM) | 59.66 ± 0.66 | 72.45 ± 0.65 | 86.49 ± 0.49 | 141 (≈ 411 µM) | 91.00 ± 0.52% and 91.00 ± 0.52 ^ns % | 91.75 ± 0.04% and 91.75 ± 0.04 ^ns % | 98.75 ± 0.25% and 98.75% and 98.75 ± 0.25 ^ns % | < 0.291 | 84.25 ± 0.12 | 86.75 ± 0.22 | 90 ± 0.1
CCOC(=O)C1(C2CC(=O)N(c3ccccc3)C2=O)CCCCC1=O (centres unmarked) [Compound 3, Ethyl 2-oxo-1-(2,5-dioxo-1-phenylpyrrolidin-3-yl)cyclohexanecarboxylate] | 30.59 ± 0.67 | 54.64 ± 0.70 | 60.40 ± 0.49 | 535 (≈ 1560 µM) | 64.67 ± 0.89 | 71.25 ± 0.48 | 80.41 ± 0.73 | 73 (≈ 213 µM) | 95.25 ± 0.20 ^ns % | 96.00 ± 0.80 ^ns % | 98.50 ± 0.09% and 98.50 ± 0.09 ^ns % | 20.4 | 78.25 ± 0.04 | 89 ± 0.3 | 89.25 ± 0.5
CCOC(=O)C1(C2CC(=O)N(Cc3ccccc3)C2=O)CCCCC1=O (centres unmarked) [Compound 4, 1Ethyl 1-(1-benzyl-2,5-dioxopyrrolidin-3-yl)-2-oxocyclohexanecarboxylate] | 20.34 ± 0.58 | 24.75 ± 0.64 | 45.80 ± 0.61 | >1000 | 54.00 ± 1.15 | 67.33 ± 0.77 | 73.59 ± 0.43 | 173 (≈ 484 µM) | 93.25 ± 0.15 ^ns % | 96.00 ± 0.55 ^ns % | 97.25 ± 0.07% and 97.25 ± 0.07 ^ns % | 5.6 | 87.5 ± 0.04 | 88.5 ± 0.5 | 98.5 ± 0.18
COc1ccc2c3c1O[C@H]1C[C@@H](O)C=C[C@@]31CCN(C)C2 [Galanthamine, reference compound] | – | – | – | – | – | – | – | – | – | – | – | – | 71.72 ± 0.51 | 85.47 ± 0.59 | 94.5 ± 0.71
